Assay results reported in PMC10079235 (PLOS Neglected Tropical Diseases, 2023).

Columns and labels:
MDR1 = test system: MDR1; set-up: method as in PMID 34648615; settings: 300 nM ref 15; cited from earlier work
Cryptosporidium parvum = experiment: Anti-cryptosporidial efficacy assay (44-h infection/qRT-PCR); settings: 300 nM; cultured with NC, MDR1(PTX) and MDR1(NTZ) cells
HCT-8 cells = experiment: MTS cytotoxicity assay with MDR1 inhibitor elacridar, several HCT-8 derived cell lines; settings: 300 nM, NC, MDR1, NC(PTX), NC(NTZ)
Protocol: If the increase of tolerance to a specified inhibitor in host cells was truly mediated by MDR1, specific inhibition of MDR1 would restore the sensitivity of the host cells to the inhibitor (as indicated by TC50). Additionally, inhibition of MDR1 would not affect the anti-cryptosporidial efficacy (EC50) if the drug that acted only on the parasite target, or partially affect the efficacy (EC50) if the drug that also acted on host cell target. This notion was tested using elacridar, a third generation of MDR1 inhibitor [18, 23–25]. […] We then examined the effect of elacridar on the cytotoxicity and anti-cryptosporidial efficacies of the six inhibitors in the range of TC50 or EC50 concentrations.
Host cell drug tolerance to specified inhibitors was evaluated by 3-(4,5-dimethylthiazol-2-yl)-5-(3-carboxymethoxyphenyl)-2-(4-sulfophenyl)-2H-tetrazolium (MTS) assay. […] Optical density at 490 nm (OD490) was measured using a Synergy LX multi-mode reader (BioTek, Winooski, VT). Drug tolerance was indicated by half-maximal cytotoxic concentrations (TC50 values) calculated by nonlinear regression using 4PL model. Selectivity index (SI) for each compound was determined by the ratio between TC50 and EC50 values (SI = TC50/EC50).

COc1cc2c(cc1OC)CN(CCc1ccc(NC(=O)c3cccc4c(=O)c5cccc(OC)c5[nH]c34)cc1)CC2 [elacridar]
Inhibition on the activity of MDR1 (MDR1): strong inhibition
Effect on growth of C. parvum (Cryptosporidium parvum): no or little effect
Effect on growth of host cells (HCT-8 cells): no or little effect
